pIC50: −log10 of the molar value. Activity calls are given as the source filed them. The rule behind the calls is not given here.

The target of data set [1] is T1, Lysine-specific histone demethylase 1A (Homo sapiens, UniProt O60341). Nature of the data set: Binding affinity to LSD1 in human A549 cells assessed as increase in stability of cellular LSD1 protein at 10 uM pre-incubated for 1 hr followed by heating at 49 degC for 3 mins by Western blot-based CESTA. Type of data set: cell-based.
In data set [2] the target is T1, Lysine-specific histone demethylase 1A. In words: Binding affinity to LSD1 in human A549 cells assessed as increase in stability of cellular LSD1 protein at 10 uM pre-incubated for 1 hr followed by heating at 52 degC for 3 mins by Western blot-based CESTA. The format is cell-based. (Immunoblotting shows a protein as a band on a membrane.)
Data set [3] has as its system A549. In words: Effect on LSD1 expression in human A549 cells up to 16 uM after 96 hrs by Western blot analysis. Type of data set: functional, cell-based.
In data set [4] the test system is A549. Nature of the data set: Down regulation of snail levels in human A549 cells up to 16 uM after 96 hrs by Western blot analysis. The format is functional, cell-based.
Data set [5] deals with A549. Nature of the data set: Down regulation of N-cadherin levels in human A549 cells up to 16 uM after 96 hrs by Western blot analysis. The format is functional, cell-based.
Data set [6] concerns A549. Nature of the data set: Down regulation of slug levels in human A549 cells up to 16 uM after 96 hrs by Western blot analysis. The format is functional, cell-based.
Data set [7] relates to A549. Nature of the data set: Up regulation of claudin-1 levels in human A549 cells up to 16 uM after 96 hrs by Western blot analysis. Type of data set: functional, cell-based.
The subject of data set [8] is A549. Nature of the data set: Up regulation of E-cadherin levels in human A549 cells up to 16 uM after 96 hrs by Western blot analysis. Type of data set: functional, cell-based.
The test system of data set [9] is A549. In words: Antiproliferative activity against human A549 cells assessed as reduction in cell viability at 1.25 to 100 uM measured after 72 hrs by MTT based method. Type of data set: functional. (In general: Formazan colour is commonly taken as a measure of viable cells.)
In data set [10] the target is T1, Lysine-specific histone demethylase 1A. In words: Inhibition of recombinant LSD1 (unknown origin) expressed in Escherichia coli BL21(DE) using H3K4me2 substrate by amplex red and horseradish peroxidase based fluorescence assay.
The nature of data set [11]: Antioxidant activity assessed as hydrogen peroxide scavenging activity at 10 uM incubated for 30 mins by ferrous ion oxidation-xylenol orange based method. Type of data set: functional.
The target in data set [12] is T2, MAO-A (Homo sapiens, UniProt P21397).
T2 sequence (P21397 whole entry): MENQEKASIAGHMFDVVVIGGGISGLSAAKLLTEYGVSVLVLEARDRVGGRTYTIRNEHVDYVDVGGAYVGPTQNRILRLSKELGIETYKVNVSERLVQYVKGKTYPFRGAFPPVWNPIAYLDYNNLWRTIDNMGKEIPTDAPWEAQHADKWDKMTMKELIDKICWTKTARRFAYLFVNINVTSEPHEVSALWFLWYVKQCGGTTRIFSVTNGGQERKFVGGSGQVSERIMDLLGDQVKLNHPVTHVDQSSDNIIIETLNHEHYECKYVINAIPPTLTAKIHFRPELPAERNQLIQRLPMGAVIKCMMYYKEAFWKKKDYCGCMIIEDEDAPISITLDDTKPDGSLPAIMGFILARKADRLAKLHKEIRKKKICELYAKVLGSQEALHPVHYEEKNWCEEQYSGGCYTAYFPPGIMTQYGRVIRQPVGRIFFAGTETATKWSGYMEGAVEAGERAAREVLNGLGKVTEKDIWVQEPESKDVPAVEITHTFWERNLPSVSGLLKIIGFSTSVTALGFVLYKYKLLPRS
In words: Inhibition of N-terminal FLAG-tagged full length recombinant human MAO-A expressed in Sf9 cells at 10 uM using luciferin derived luminogenic substrate preincubated for 15 mins followed by substrate addition and measured after 60 mins by MAO-Glo assay relative to control. The conditions noted are these: probe luciferin derived luminogenic substrate.

Data set [13] addresses T2, MAO-A. In words: Inhibition of N-terminal FLAG-tagged full length recombinant human MAO-A expressed in Sf9 cells at 1 uM using luciferin derived luminogenic substrate preincubated for 15 mins followed by substrate addition and measured after 60 mins by MAO-Glo assay relative to control. The settings on record: probe luciferin derived luminogenic substrate.
The target in data set [14] is T3, MAO-B (Homo sapiens, UniProt P27338).
T3 sequence (P27338 whole entry): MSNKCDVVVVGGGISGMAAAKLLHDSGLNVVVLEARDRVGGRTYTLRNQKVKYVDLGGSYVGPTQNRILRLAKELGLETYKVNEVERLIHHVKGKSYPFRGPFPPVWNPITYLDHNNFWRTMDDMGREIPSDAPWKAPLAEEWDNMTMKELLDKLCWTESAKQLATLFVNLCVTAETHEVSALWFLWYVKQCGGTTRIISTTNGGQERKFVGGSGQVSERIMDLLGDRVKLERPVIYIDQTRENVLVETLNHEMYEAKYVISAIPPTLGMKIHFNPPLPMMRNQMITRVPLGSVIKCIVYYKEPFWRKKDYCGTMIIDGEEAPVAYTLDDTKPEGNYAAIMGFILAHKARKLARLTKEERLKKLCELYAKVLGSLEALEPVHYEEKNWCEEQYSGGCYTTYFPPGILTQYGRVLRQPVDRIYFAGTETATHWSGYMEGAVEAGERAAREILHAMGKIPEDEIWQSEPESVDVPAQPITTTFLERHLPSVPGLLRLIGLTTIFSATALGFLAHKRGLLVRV
In words: Inhibition of N-terminal FLAG-tagged full length recombinant human MAO-B expressed in Sf9 cells at 10 uM using luciferin derived luminogenic substrate preincubated for 15 mins followed by substrate addition and measured after 60 mins by MAO-Glo assay relative to control. The conditions noted are these: probe luciferin derived luminogenic substrate.

Data set [15] has as its target T3, MAO-B. In words: Inhibition of N-terminal FLAG-tagged full length recombinant human MAO-B expressed in Sf9 cells at 1 uM using luciferin derived luminogenic substrate preincubated for 15 mins followed by substrate addition and measured after 60 mins by MAO-Glo assay relative to control. The conditions noted are these: probe luciferin derived luminogenic substrate.

Data set [16] concerns A549. In words: Antiproliferative activity against human A549 cells assessed as reduction in cell viability measured after 72 hrs by MTT based method. The settings on record: A549, 72 h.
The next data set concerns Armoracia rusticana. The conditions noted are these: 10 uM.
Data set [17] relates to A549. The settings on record: Homo sapiens, 16 uM.
Description: Antimigratory activity in human A549 cells at 16 uM after 48 hrs by Hoechst 33258 staining based transwell assay
In data set [18] the target is T1, Lysine-specific histone demethylase 1A. The conditions noted are these: 1.6 uM.
Description: Irreversible inhibition of recombinant LSD1 (unknown origin) expressed in Escherichia coli BL21(DE) assessed as recovery of enzyme activity at 1.6 uM using H3K4me2 substrate incubated for 1 hr followed by 80 fold dilution by dilution assay
Data set [19] shares this target. Nature of the data set: Binding affinity to LSD1 in human A549 cells assessed as increase in stability of cellular LSD1 protein at 10 to 20 uM pre-incubated for 1 hr followed by heating at 46 and 52 degC for 3 mins by Western blot-based CESTA. The format is cell-based.
For data set [20] the target is unchanged. Nature of the data set: Inhibition of LSD1 in human A549 cells assessed as accumulation of H3K4me1 at 8 to 16 uM after 96 hrs by Western blot analysis. The format is cell-based.
Data set [21] shares this target. Nature of the data set: Inhibition of LSD1 in human A549 cells assessed as accumulation of H3K4me2 at 8 to 16 uM after 96 hrs by Western blot analysis. Type of data set: cell-based.
For data set [22] the target is unchanged. Nature of the data set: Inhibition of LSD1 in human A549 cells assessed as accumulation of H3K9me1 at 8 to 16 uM after 96 hrs by Western blot analysis. The format is cell-based.
For data set [23] the target is unchanged. In words: Inhibition of LSD1 in human A549 cells assessed as accumulation of H3K9me2 at 8 to 16 uM after 96 hrs by Western blot analysis. The format is cell-based.
In data set [24] the test system is A549. Nature of the data set: Antiproliferative activity against human A549 cells assessed as reduction in cell viability at <40 uM measured after 72 hrs by MTT based method. The format is functional.

Description for Armoracia rusticana: Inhibition of horseradish peroxidase at 10 uM incubated for 10 mins with presence of H2O2 by absorbance based method relative to control

`c1ccc([C@@H]2C[C@H]2NC2CCNCC2)cc1`: the outcome (in [1]; in data set [2]; in the data set with A549 [4]; in the data set on A549 [5]; in the data set with A549 [6]; in the data set with A549 [7]) was Active. For the same compound, the result in the data set on A549 [8] was Active. In addition, the result in the data set on A549 [3] and with A549 [9] was inactive.

As for `Cc1cc(Nc2ccc(N3CCN(C)CC3)cc2)n2nc(SCC3CC3)nc2n1`, the pIC50 (commonly −log10 of the IC50, conventionally taken in molar units) in data set [10] was < 4.30.

`Cc1cc(N)n2nc(SCc3ccccc3)nc2n1`: the negative logarithm of the IC50 (pIC50) in data set [10] is < 4.30.

In the case of `Cc1cc(Nc2ccc(N3CCN(C)CC3)cc2)n2nc(SCc3nc4ccccc4[nH]3)nc2n1`, the result (in [11]; in the data set with A549 [3]) was inactive. Also, the inhibition (commonly the relative decrease from the control value, in per cent) at 1 h, 10 µM at MAO-A [12] worked out at 40%; at MAO-B [14] it was 34%. In addition, the inhibition at 1 h, 1 µM at MAO-A [13] was found to be 13%; on MAO-B [15] it was 18%. Further, the pIC50 in the data set on A549 [16] is 4.62. Further, the result with A549 [4], in the data set on A549 [5], with A549 [6], with A549 [7] and in the data set on A549 [8] was Active. Further, the inhibition entry in the data set with Armoracia rusticana is “inactive”. The inhibition result in the data set on A549 [17] is “Active”.

In the case of `Cc1cc(Nc2ccc(N3CCN(C)CC3)cc2)n2nc(SCCCc3ccccc3)nc2n1`, the pIC50 in data set [10] was < 4.30.

Regarding `Cc1nc2nc(SCc3ccc(Cl)cc3)nn2c(Nc2ccc(N3CCN(C)CC3)cc2)c1C`, the pIC50 in data set [10] was < 4.30.

As to `CN1CCN(c2ccc(Nc3cc(-c4ccccc4)nc4ncnn34)cc2)CC1`, the pIC50 in [10] was < 4.30.

As to `CCCCCc1c(C)nc2nc(SCc3ccc(Cl)cc3)nn2c1Nc1ccc(N2CCN(C)CC2)cc1`, the pIC50 in [10] is < 4.30.

On to `O=C(O)c1ccc(CN2CCC(CN[C@@H]3C[C@H]3c3ccccc3)CC2)cc1`, for which the inhibition result in [18] is “inactive”.

`Cc1cc(Nc2ccc(N3CCN(C)CC3)cc2)n2nc(SCc3ccccc3[N+](=O)[O-])nc2n1`: the negative-log IC50 (pIC50) in data set [10] is < 4.30.

Regarding `CN1CCN(c2ccc(Nc3c4c(nc5ncnn35)CCC4)cc2)CC1`, the pIC50 in [10] is < 4.30.

Take `Cc1cc(Nc2ccccc2)n2nc(SCc3ccccc3)nc2n1`: the pIC50 in [10] is < 4.30.

Consider `Cc1cc(Nc2ccccc2)n2nc(SCc3nc4ccccc4[nH]3)nc2n1`, for which the pIC50 in data set [10] is < 4.30. Besides, the outcome (in data set [11]; in [19]; with A549 [3]; with A549 [4]; in the data set on A549 [5]; in the data set on A549 [6]) was inactive. The outcome with A549 [7], in the data set with A549 [8] and in the data set with A549 [24] was inactive. Besides, the inhibition result in data set [20], in data set [21], in [22] and in data set [23] was “inactive” throughout.

The values above are taken from ChEMBL document CHEMBL4390644, “Synthesis, structure-activity relationship studies and biological characterization of new [1,2,4]triazolo[1,5-a]pyrimidine-based LSD1/KDM1A inhibitors” (Eur J Med Chem, 2019).
